Test results reported in US7683069B2, “3-substituted-4-pyrimidone derivatives” (Mitsubishi Tanabe Pharma Corporation, priority 2002, dated 2010).

Target: T1, bovine cerebral TPK1 (Bos taurus, UniProt A0A3Q1MT31)
T1 construct: bovine cerebral TPK1; from tissue; host or cells: bovine brain (cerebrum)
Experiment: Inhibitory activity against P-GS1 phosphorylation by bovine cerebral TPK1
Assay type: biochemical
Settings: 41.7 μM [γ-32P] ATP, 25° C., 2 hours, pH 6.5
Description: Inhibitory Activity of the Medicament of the Present Invention Against P-GS1 Phosphorylation by Bovine Cerebral TPK1
A mixture containing 100 mM MES-sodium hydroxide (pH 6.5), 1 mM magnesium acetate, 0.5 mM EGTA, 5 mM β-mercaptoethanol, 0.02% Tween 20, 10% glycerol, 12 μg/ml P-GS1, 41.7 μM [γ-^32P] ATP (68 kBq/ml), bovine cerebral TPK1 and a compound shown in Table (a final mixture contained 1.7% DMSO deriving from a solution of a test compound prepared in the presence of 10% DMSO) was used as a reaction system. The phosphorylation was started by adding ATP, and the reaction was conducted at 25° C. for 2 hours, and then stopped by adding 21% perchloric-acid on ice cooling. The reaction mixture was centrifuged at 12,000 rpm for 5 minutes and adsorbed on P81 paper (Whatmann), and then the paper was washed four times with 75 mM phosphoric acid, three times with water and once with acetone. The paper was dried, and the residual radioactivity was measured using a liquid scintillation counter.

T1 sequence (A0A3Q1MT31 1-419): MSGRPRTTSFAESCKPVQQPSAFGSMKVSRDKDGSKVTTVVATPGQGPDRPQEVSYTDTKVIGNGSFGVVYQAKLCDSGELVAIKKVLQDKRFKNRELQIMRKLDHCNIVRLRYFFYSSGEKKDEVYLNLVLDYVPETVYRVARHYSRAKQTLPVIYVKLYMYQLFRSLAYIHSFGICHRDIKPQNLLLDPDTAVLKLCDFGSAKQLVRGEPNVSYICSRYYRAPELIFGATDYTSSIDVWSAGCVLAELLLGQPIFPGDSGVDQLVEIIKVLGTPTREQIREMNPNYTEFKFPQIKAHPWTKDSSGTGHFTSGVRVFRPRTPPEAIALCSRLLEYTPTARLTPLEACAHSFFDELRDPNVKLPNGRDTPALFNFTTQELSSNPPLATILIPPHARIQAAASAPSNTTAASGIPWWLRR

Row | IC50 [nM] | SMILES
1 | 6.5 | Cn1c(N2CCC=C(c3ccccc3)C2)nc(-c2ccncn2)cc1=O [Compound B001, 2-(5-phenyl-3,6-dihydro-2H-pyridin-1-yl)-3-methyl-6-pyrimidin-4-yl-3H-pyrimidin-4-one]
2 | 1.1 | Cn1c(N2CCC=C(c3ccccc3F)C2)nc(-c2ccncn2)cc1=O [Compound B002, 2-[5-(2-fluorophenyl)-3,6-dihydro-2H-pyridin-1-yl]-3-methyl-6-pyrimidin-4-yl-3H-pyrimidin-4-one]
3 | 6.3 | Cn1c(N2CCC=C(c3ccc(F)cc3)C2)nc(-c2ccncn2)cc1=O [Compound B004, 2-[5-(4-fluorophenyl)-3,6-dihydro-2H-pyridin-1-yl]-3-methyl-6-pyrimidin-4-yl-3H-pyrimidin-4-one]
4 | 0.38 | Cn1c(N2CCC=C(c3ccccc3Cl)C2)nc(-c2ccncn2)cc1=O [Compound B005, 2-[5-(2-chlorophenyl)-3,6-dihydro-2H-pyridin-1-yl]-3-methyl-6-pyrimidin-4-yl-3H-pyrimidin-4-one]
5 | 3.9 | Cn1c(N2CCC=C(c3ccc(F)cc3F)C2)nc(-c2ccncn2)cc1=O [Compound B012, 2-[5-(2,4-difluorophenyl)-3,6-dihydro-2H-pyridin-1-yl]-3-methyl-6-pyrimidin-4-yl-3H-pyrimidin-4-one]
6 | 5.6 | Cn1c(N2CCC=C(c3ccc(Cl)cc3Cl)C2)nc(-c2ccncn2)cc1=O [Compound B017, 2-[5-(2,4-dichlorophenyl)-3,6-dihydro-2H-pyridin-1-yl]-3-methyl-6-pyrimidin-4-yl-3H-pyrimidin-4-one]
7 | 7.7 | COc1ccc(C2=CCCN(c3nc(-c4ccncn4)cc(=O)n3C)C2)cc1 [Compound B022, 2-[5-(4-methoxyphenyl)-3,6-dihydro-2H-pyridin-1-yl]-3-methyl-6-pyrimidin-4-yl-3H-pyrimidin-4-one]
8 | 2.4 | COc1cccc(OC)c1C1=CCCN(c2nc(-c3ccncn3)cc(=O)n2C)C1 [Compound B026, 2-[5-(2,6-dimethoxyphenyl)-3,6-dihydro-2H-pyridin-1-yl]-3-methyl-6-pyrimidin-4-yl-3H-pyrimidin-4-one]
9 | 2.6 | Cn1c(N2CCC=C(c3ccccc3C(F)(F)F)C2)nc(-c2ccncn2)cc1=O [Compound B027, 2-[5-(2-trifluoromethylphenyl)-3,6-dihydro-2H-pyridin-1-yl]-3-methyl-6-pyrimidin-4-yl-3H-pyrimidin-4-one]
10 | 17 | Cn1c(N2CCC=C(c3ccccc3-c3ccccc3)C2)nc(-c2ccncn2)cc1=O [Compound B033, 2-(5-biphenyl-2-yl-3,6-dihydro-2H-pyridin-1-yl)-3-methyl-6-pyrimidin-4-yl-3H-pyrimidin-4-one]
11 | 17 | Cn1c(N2CCC=C(c3ccsc3)C2)nc(-c2ccncn2)cc1=O [Compound B043, 2-(5-thiophen-3-yl-3,6-dihydro-2H-pyridin-1-yl)-3-methyl-6-pyrimidin-4-yl-3H-pyrimidin-4-one]
12 | 9 | Cn1c(N2CCC=C(c3cccs3)C2)nc(-c2ccncn2)cc1=O [Compound B044, 2-(5-thiophen-2-yl-3,6-dihydro-2H-pyridin-1-yl)-3-methyl-6-pyrimidin-4-yl-3H-pyrimidin-4-one]
13 | 5.1 | Cn1c(N2CCC=C(c3noc4ccccc34)C2)nc(-c2ccncn2)cc1=O [Compound B049, 2-[5-(benzisoxazole-3-yl)-3,6-dihydro-2H-pyridin-1-yl]-3-methyl-6-pyrimidin-4-yl-3H-pyrimidin-4-one]
14 | 6.8 | Cn1c(N2CCC=C(c3ccc(C(=O)N4CCCC4)cc3)C2)nc(-c2ccncn2)cc1=O [Compound B057, 2-[5-(4-pyrrolidinylcarbonylphenyl)-3,6-dihydro-2H-pyridin-1-yl]-3-methyl-6-pyrimidin-4-yl-3H-pyrimidin-4-one]

Second part, the compound before the results:

Row | SMILES | IC50 [nM]
15 | Cn1c(N2CCC=C(c3ccccc3)C2)nc(-c2ccncc2)cc1=O [Compound A001, 2-(5-phenyl-3,6-dihydro-2H-pyridin-1-yl)-3-methyl-6-pyridin-4-yl-3H-pyrimidin-4-one] | 7
16 | Cn1c(N2CCC=C(c3ccccc3F)C2)nc(-c2ccncc2)cc1=O [Compound A002, 2-[5-(2-fluorophenyl)-3,6-dihydro-2H-pyridin-1-yl]-3-methyl-6-pyridin-4-yl-3H-pyrimidin-4-one] | 1.2
17 | Cn1c(N2CCC=C(c3ccc(F)cc3)C2)nc(-c2ccncc2)cc1=O [Compound A004, 2-[5-(4-fluorophenyl)-3,6-dihydro-2H-pyridin-1-yl]-3-methyl-6-pyridin-4-yl-3H-pyrimidin-4-one] | 13
18 | Cn1c(N2CCC=C(c3ccc(F)cc3F)C2)nc(-c2ccncc2)cc1=O [Compound A012, 2-[5-(2,4-difluorophenyl)-3,6-dihydro-2H-pyridin-1-yl]-3-methyl-6-pyridin-4-yl-3H-pyrimidin-4-one] | 17
19 | COc1ccccc1C1=CCCN(c2nc(-c3ccncc3)cc(=O)n2C)C1 [Compound A020, 2-[5-(2-methoxyphenyl)-3,6-dihydro-2H-pyridin-1-yl]-3-methyl-6-pyridin-4-yl-3H-pyrimidin-4-one] | 5
20 | COc1ccc(C2=CCCN(c3nc(-c4ccncc4)cc(=O)n3C)C2)cc1 [Compound A022, 2-[5-(4-methoxyphenyl)-3,6-dihydro-2H-pyridin-1-yl]-3-methyl-6-pyridin-4-yl-3H-pyrimidin-4-one] | 8.7
21 | COc1cccc(OC)c1C1=CCCN(c2nc(-c3ccncc3)cc(=O)n2C)C1 [Compound A026, 2-[5-(2,6-dimethoxyphenyl)-3,6-dihydro-2H-pyridin-1-yl]-3-methyl-6-pyridin-4-yl-3H-pyrimidin-4-one] | 16
22 | Cn1c(N2CCC=C(c3ccccc3C(F)(F)F)C2)nc(-c2ccncc2)cc1=O [Compound A027, 2-[5-(2-trifluoromethylphenyl)-3,6-dihydro-2H-pyridin-1-yl]-3-methyl-6-pyridin-4-yl-3H-pyrimidin-4-one] | 31
23 | Cn1c(N2CCC=C(Cc3ccccc3)C2)nc(-c2ccncc2)cc1=O [Compound A050, 2-(5-benzyl-3,6-dihydro-2H-pyridin-1-yl)-3-methyl-6-pyridin-4-yl-3H-pyrimidin-4-one] | 8
24 | Cn1c(N2CCC=C(COc3ccc(F)cc3)C2)nc(-c2ccncc2)cc1=O [Compound A056, 2-[5-(4-fluorophenoxymethyl)-3,6-dihydro-2H-pyridin-1-yl]-3-methyl-6-pyridin-4-yl-3H-pyrimidin-4-one] | 27
25 | Cn1c(N2CCC=C(c3ccc(C(=O)N4CCCC4)cc3)C2)nc(-c2ccncc2)cc1=O [Compound A057, 2-[5-(4-pyrrolidinylcarbonylphenyl)-3,6-dihydro-2H-pyridin-1-yl]-3-methyl-6-pyridin-4-yl-3H-pyrimidin-4-one] | 24
